How the values were obtained:
[1] = test system: rice (Oryza sativa) plastidal ACCase; test: Clethodim tolerance of rice ACCase mutations, yeast complementation assay (Examples 1-3); assay type: cell-based; details: for clethodim tolerance: ACCase mutation tested with the herbicide clethodim; for clethodim tolerance of combined mutations compared with single mutation(s) or parent mutant: double/triple mutants vs single mutations
Text: Joachimiak M. et al Proc Natl Acad Sci U.S.A. 1997 Sep. 2; 94 (18): 9990-5 and WO/2013/074524 and WO/2013/074524 each describe methods to complement a yeast (Saccharomyces cerevisiae) strain lacking the native acc1 gene with either a wt or mutated form of a chimeric plastidal ACCase gene from a plant such as rice (Oryza sativa). Methods to introduce one or more mutations listed herein into the chimeric ACCase gene and subsequently complement the acc1 lacking yeast strain are well known by an individual skilled in the art. In the art assays are known for measuring tolerance of a mutated plant ACCase gene versus a herbicide that is a member of the aryloxyphenoxypropanoate, cyclohexanedione, and/or phenylpyrazoline families of herbicides such as clethodim, sethoxydim, fluazifop, haloxyfop, quizalofop, and pinoxaden (Joachimiak M. et al Proc Natl Acad Sci U.S.A. 1997 Sep. 2; 94 (18): 9990-5 and WO/2013/074524).
A library of random mutations in the rice (Oryza sativa) plastidal ACCase gene was generated and screened for clethodim tolerant clones using a yeast complementation assay.

[2] = test system: O. sativa ACCase; test: Growth of Saccharomyces cerevisiae pseudodiploid acc1Δ strains carrying wild-type or mutant OsACCase plasmids, streaked onto plates with increasing concentrations of clethodim (Examples 5, 7, 10; Tables 8, 12); assay type: cell-based, Oryza sativa; design: key to growth, 0 mM clethodim / growth, 0.025 mM clethodim / growth, 0.1 mM clethodim / growth, 0.25 mM clethodim / growth, 0.5 mM clethodim / growth, 1 mM clethodim: ++ = Strong growth; + = Poor growth; − = No growth; key to relative growth phenotype, 0.5 mM clethodim / relative growth phenotype, 1 mM clethodim / relative growth phenotype, 2 mM clethodim / relative growth phenotype, highGal / relative growth phenotype, lowGal / relative growth phenotype, 0.05 mM clethodim / relative growth phenotype, 0.1 mM clethodim / relative growth phenotype, 0.25 mM clethodim: +++ high growth; ++ moderate growth; + low to negligible growth; (−) some cell debris, no growth; − no growth or cell debris; details: for relative growth phenotype, 0.05 mM clethodim: plate with 0.05 mM clethodim; for relative growth phenotype, 0.05 mM clethodim / relative growth phenotype, 0.1 mM clethodim / relative growth phenotype, 0.25 mM clethodim / relative growth phenotype, 0.5 mM clethodim / relative growth phenotype, 1 mM clethodim / relative growth phenotype, 2 mM clethodim / growth, 0 mM clethodim / growth, 0.025 mM clethodim / growth, 0.1 mM clethodim / growth, 0.25 mM clethodim / growth, 0.5 mM clethodim / growth, 1 mM clethodim: galactose 0.01%; for relative growth phenotype, 0.1 mM clethodim / growth, 0.1 mM clethodim: plate with 0.1 mM clethodim; for relative growth phenotype, 0.25 mM clethodim / growth, 0.25 mM clethodim: plate with 0.25 mM clethodim; for relative growth phenotype, 0.5 mM clethodim / growth, 0.5 mM clethodim: plate with 0.5 mM clethodim; for relative growth phenotype, 1 mM clethodim / growth, 1 mM clethodim: plate with 1 mM clethodim; for relative growth phenotype, 2 mM clethodim: plate with 2 mM clethodim; for relative growth phenotype, highGal / relative growth phenotype, lowGal: yeast acc1Δ strain with OsACCase plasmid, no clethodim; for relative growth phenotype, highGal: high galactose plate; for relative growth phenotype, lowGal: low galactose plate; for clethodim tolerance compared to the wild-type (wt) control strain: Example 5; for growth, 0 mM clethodim / growth, 0.025 mM clethodim / growth, 0.1 mM clethodim / growth, 0.25 mM clethodim / growth, 0.5 mM clethodim / growth, 1 mM clethodim: Table 12; for growth, 0 mM clethodim: plate with 0 mM clethodim; for growth, 0.025 mM clethodim: plate with 0.025 mM clethodim
Text: Mutations at position N2097S and V2098A were combined to determine if point mutations at both positions gave increased resistance compared to either single point mutation. Each of these respective mutations (N2097S, V2098A and N2097S/V2098A) were generated by standard methods and introduced into a Saccharomyces cerevisiae pseudodiploid acc1Δ strain with a plasmid containing wild-type O. sativa ACCase gene. Once each of these mutations were introduced by recombination mediated mutagenesis, the OsACCase wild-type plasmid was removed, and mutation strains were confirmed by sequencing. The three strains, along with a series of controls including a WT strain (negative control), an I1781L mutant strain, and a D2078G mutant strain (positive control), were streaked onto plates with increasing concentrations of clethodim. […] These observations argue that N2097S is an enhancer of V2098A tolerance.
Edits at position S1784N and A1785G were combined to determine if point mutations at both of these two positions gave increased resistance compared to either single point mutation. Each of these respective mutations (S1784N, A1785G and S1784N/A1785G) were generated by standard methods and introduced into a Saccharomyces cerevisiae pseudodiploid acc1Δ strain with a plasmid containing wild-type O. sativa ACCase gene. Once each of these mutations were introduced by recombination mediated mutagenesis, the OsACCase wild-type plasmid was removed, and mutation strains were confirmed by sequencing. The three strains, along with a series of controls including a WT strain (negative control), an I1781L mutant strain, a D2078G mutant strain (positive control), and a V2075L mutant strain were streaked onto plates with increasing concentrations of clethodim.
Each of these respective mutations (D2078G, P2083T, D2078G/P2083T) were generated by standard methods and introduced into a Saccharomyces cerevisiae pseudodiploid acc14 strain with a plasmid containing the wild-type O. sativa ACCase gene. Once plasmids bearing each of these mutations, introduced using recombination-mediated mutagenesis, the OsACCase wild-type plasmid was removed, and strains bearing each mutant plasmid were confirmed by sequencing. The three strains, along with a series of controls including a wild-type strain (negative control), an I1781L mutant strain (medium control), and a pre-existing D2078G mutant strain (positive control) were streaked onto plates with increasing concentrations of clethodim.

[3] = test system: rice Oryza sativa; test: Regenerated edited rice shoots established in soil, greenhouse: plant growth, herbicide tolerance, fertility (Example 9); assay type: in vivo
Text: The D2078G mutation was introduced into a native rice Oryza sativa ACCase gene utilizing PEG delivery of CRISPR-Cas and GRONs into protoplasts. Examples of target spacer sequences for sgRNA targeting the rice ACCase gene are shown, but not limited to, those listed in the below Table 9. Sequence information for exemplary GRONs is shown, but not limited to those listed in the below Table 10. Rice protoplasts were isolated from cell suspension cultures initiated from Cypress mature seed-derived embryogenic calli. A non-coding D2078G GRON with RNP (CRISPR-Cas9 protein plus gRNA complex) was introduced into rice protoplasts using PEG-mediated delivery method. Following PEG treatment, protoplasts were cultured in liquid medium and kept stationary in the dark at 26±2° C. for 2 weeks. After 2 weeks, culture plates were gently scraped to release the divided protoplasts from the bottom of the plates and added equal volume of fresh liquid medium. These cultures were transferred on a rotatory shaker and incubated in the dark at 26±2° C. […]
The results of herbicide rate tolerance field trials of the D2078G/P2083T line can be seen below in Table 11. The edited plants were sprayed with clethodim, and plant injury was visually scored at (7) seven, (14) fourteen, and (28) days after application of the herbicide (“DAA”) on a 0-100% percentage scale for chlorosis of newest leaf-tips and growing points.

[4] = plates with increasing clethodim, 0.01% galactose
[5] = Example 10, highest concentration tested 1 mM, 0.01% galactose

Substance	clethodim tolerance [1]	relative growth phenotype, 0.05 mM clethodim [2]	relative growth phenotype, 0.1 mM clethodim [2]	relative growth phenotype, 0.25 mM clethodim [2]	relative growth phenotype, 0.5 mM clethodim [2]	relative growth phenotype, 1 mM clethodim [2]	relative growth phenotype, 2 mM clethodim [2]	relative growth phenotype, highGal [2]	relative growth phenotype, lowGal [2]	clethodim tolerance compared to the wild-type (wt) control strain [2, 4]	also measured
A1785G: mutated ACCase, numbering per SEQ ID NO: 2	no detectable clethodim tolerance	(−)	(−)	−	−	−	−	+++	+++		
D2078G: mutated ACCase, numbering per SEQ ID NO: 2; positive control strain; also edited rice shoots	measurable clethodim tolerance	+++	+++	+++	+++	+	(−)	+++	+++	did produce tolerance	clethodim concentrations on which the strain grew ([2]; Example 7, plates with increasing clethodim, 0.01% galactose): up to 1.0 mM; growth, 0 mM clethodim [2]: ++; growth, 0.025 mM clethodim [2]: ++; growth, 0.1 mM clethodim [2]: ++; growth, 0.25 mM clethodim [2]: ++; growth, 0.5 mM clethodim [2]: ++; growth, 1 mM clethodim [2]: +; herbicide tolerance [3]: strong herbicide tolerance
I1781L: mutated ACCase, numbering per SEQ ID NO: 2; moderate-resistance control	produces tolerance	+++	+++	++	(−)	(−)	(−)	+++	+++	did produce tolerance	clethodim concentrations on which the strain grew poorly [2, 5]: up to 0.25 mM; clethodim concentrations on which the strain grew well [2, 5]: up to 0.1 mM; growth, 0 mM clethodim [2]: ++; growth, 0.025 mM clethodim [2]: ++; growth, 0.1 mM clethodim [2]: ++; growth, 0.25 mM clethodim [2]: +; growth, 0.5 mM clethodim [2]: −; growth, 1 mM clethodim [2]: −; growth on clethodim plates (in words) [2, 4]: consistent with moderate resistance
N2097S: mutated ACCase, numbering per SEQ ID NO: 2	neither the N2097S nor the N2097D single mutations provide detectable clethodim tolerance									does not produce detectable clethodim tolerance	effect on clethodim tolerance when combined with D2078G, V2075L or V2098A ([1]; combined with either D2078G, V2075L or V2098A): further increases clethodim tolerance
S1784G: mutated ACCase, numbering per SEQ ID NO: 2	measurable clethodim tolerance										
S1784N plus L1818H: double mutant ACCase											clethodim tolerance of combined mutations compared with single mutation(s) or parent mutant [1]: improves tolerance in comparison to either single mutation
S1784N: mutated ACCase, numbering per SEQ ID NO: 2	measurable clethodim tolerance	+++	+++	+	(−)	(−)	(−)	+++	+++		
V2075L/N2097D: double mutant ACCase											clethodim tolerance of combined mutations compared with single mutation(s) or parent mutant [1]: either less, or no more, tolerant than the single D2078G, V2075L and V2098A mutations
V2075L: mutated ACCase, numbering per SEQ ID NO: 2	measurable clethodim tolerance	+++	+++	+++	+++	+	(−)	+++	+++		growth on clethodim plates (in words) [2, 4]: grew to a similar extent as the V2075L mutation
V2098A/N2097D: double mutant ACCase											clethodim tolerance of combined mutations compared with single mutation(s) or parent mutant [1]: either less, or no more, tolerant than the single D2078G, V2075L and V2098A mutations
V2098A: mutated ACCase, numbering per SEQ ID NO: 2	measurable clethodim tolerance									did produce tolerance	

Source: US20260242768A1, “ACETYL-COENZYME A CARBOXYLASE MUTANTS” (CIBUS US LLC, priority 2023, published 2026)
